Values after ≈ are worked out from the molar mass of the structure shown. Like-named read-outs stand apart in the source and are kept apart here.
What was measured:
[1] = system: super sensitive Gram-negative Escherichia coli (E. coli) BAS849; assay: Antibacterial activity, microbroth dilution MIC, E. coli BAS849; type: cell-based; conditions: Escherichia coli, read-out: MIC, BAS849
[2] = system: control Gram-negative E. coli 25922 strain; assay: Antibacterial activity, microbroth dilution MIC, E. coli 25922; type: cell-based, Escherichia coli; conditions: Escherichia coli; E. coli 25922, microbroth dilution; read-out: MIC, 25922
[3] = system: Gram-positive Staphylococcus aureus (S. aureus) 29213; assay: Antibacterial activity, microbroth dilution MIC, S. aureus 29213; type: cell-based; conditions: Staphylococcus aureus; S. aureus 29213, microbroth dilution; read-out: MIC, 29213
[4] = system: quinolone resistant E. coli LZ3111; assay: Antibacterial activity, MIC, quinolone resistant E. coli LZ3111; type: cell-based, Escherichia coli; conditions: Escherichia coli, read-out: MIC, LZ3111
From the text: The antibacterial activity from a microbroth dilution method may be presented as the minimum inhibitory concentration (MIC in […]). The MIC value is the lowest concentration of a drug which prevents macroscopically visible bacterial growth under test conditions.
Mutations in these regions are known to confer a high level resistance to the quinolone class of antibiotics.

[5] = E. coli BAS849, microbroth dilution

Compound	MIC [1, 5] [µg/mL]	MIC [2] [µg/mL]	MIC [3] [µg/mL]	MIC [4] [µg/mL]	MIC [1] [µg/mL]
CCc1cc(C(=O)O)c(=O)[nH]c1-c1ccc(N2CCC(CNCc3ccc(F)cc3)C2)cc1 (stereo not drawn) [Cpd 239, 5-ethyl-6-[4-(3-{[(4-fluorobenzyl)amino]methyl}pyrrolidin-1-yl)phenyl]-2-oxo-1,2-dihydropyridine-3-carboxylic acid]	< 1	< 1	12.5 to 150 (≈ 27.8 to 334 µM)	12.5 to 150 (≈ 27.8 to 334 µM)	–
CCc1cc(C(=O)O)c(=O)[nH]c1-c1ccc(N2CCC(CNCc3ccccc3F)C2)cc1 (stereo not drawn) [Cpd 240, 5-ethyl-6-[4-(3-{[(2-fluorobenzyl)amino]methyl}pyrrolidin-1-yl)phenyl]-2-oxo-1,2-dihydropyridine-3-carboxylic acid]	< 1	1 to 3.5 (≈ 2.22 to 7.79 µM)	12.5 to 150 (≈ 27.8 to 334 µM)	12.5 to 150 (≈ 27.8 to 334 µM)	–
CCc1cc(C(=O)O)c(=O)[nH]c1-c1ccc(N2CCC(CNCc3cccnc3)C2)cc1 (stereo not drawn) [Cpd 241, 5-ethyl-2-oxo-6-[4-(3-{[(pyridin-3-ylmethyl)amino]methyl}pyrrolidin-1-yl)phenyl]-1,2-dihydropyridine-3-carboxylic acid]	< 1	< 1	12.5 to 150 (≈ 28.9 to 347 µM)	12.5 to 150 (≈ 28.9 to 347 µM)	–
CCc1cc(C(=O)O)c(=O)[nH]c1-c1ccc(N2CCC(CNCc3ccncc3)C2)cc1 (stereo not drawn) [Cpd 242, 5-ethyl-2-oxo-6-[4-(3-{[(pyridin-4-ylmethyl)amino]methyl}pyrrolidin-1-yl)phenyl]-1,2-dihydropyridine-3-carboxylic acid]	< 1	1 to 3.5 (≈ 2.31 to 8.09 µM)	12.5 to 150 (≈ 28.9 to 347 µM)	12.5 to 150 (≈ 28.9 to 347 µM)	–
CCc1cc(C(=O)O)c(=O)[nH]c1-c1ccc(N2CCC(CNCc3ccccn3)C2)cc1 (stereo not drawn) [Cpd 243, 5-ethyl-2-oxo-6-[4-(3-{[(pyridin-2-ylmethyl)amino]methyl}pyrrolidin-1-yl)phenyl]-1,2-dihydropyridine-3-carboxylic acid]	< 1	1 to 3.5 (≈ 2.31 to 8.09 µM)	12.5 to 150 (≈ 28.9 to 347 µM)	12.5 to 150 (≈ 28.9 to 347 µM)	–
CCc1cc(C(=O)O)c(=O)[nH]c1-c1ccc(N2C[C@H]3CC[C@H](N=[N+]=[N-])[C@H]3C2)cc1.O=C(O)C(F)(F)F [Cpd 245, 6-{4-[(3aR,4S,6aS)-4-azidohexahydrocyclopenta[c]pyrrol-2(1H)-yl]phenyl}-5-ethyl-2-oxo-1,2-dihydropyridine-3-carboxylic acid trifluoroacetate]	–	3.5 to 12.5	3.5 to 12.5	12.5 to 150	< 1
CCc1c(-c2ccc(N3C[C@H]4C[C@@H](N)C[C@H]4C3)cc2)[nH]c(=O)c(C(=O)O)c1O [Cpd 248, 6-{4-[(3aR,5r,6aS)-5-aminohexahydrocyclopenta[c]pyrrol-2(1H)-yl]phenyl}-5-ethyl-4-hydroxy-2-oxo-1,2-dihydropyridine-3-carboxylic acid]	1 to 3.5 (≈ 2.61 to 9.13 µM)	12.5 to 150 (≈ 32.6 to 391 µM)	12.5 to 150 (≈ 32.6 to 391 µM)	12.5 to 150 (≈ 32.6 to 391 µM)	–
CCc1c(-c2ccc(N3C[C@H](CN(Cc4ccccc4)Cc4ccccc4)[C@@H](C)C3)cc2)[nH]c(=O)c(C(=O)O)c1O [Cpd 249, 6-(4-{(3S,4R)-3-[(dibenzylamino)methyl]-4-methylpyrrolidin-1-yl}phenyl)-5-ethyl-4-hydroxy-2-oxo-1,2-dihydropyridine-3-carboxylic acid]	12.5 to 150 (≈ 22.7 to 272 µM)	12.5 to 150 (≈ 22.7 to 272 µM)	12.5 to 150 (≈ 22.7 to 272 µM)	12.5 to 150 (≈ 22.7 to 272 µM)	–
CCc1c(-c2ccc(N3C[C@H]4C[C@@H](NCc5ccccc5)C[C@H]4C3)cc2)[nH]c(=O)c(C(=O)O)c1O [Cpd 250, 6-{4-[(3aR,5r,6aS)-5-(benzylamino)hexahydrocyclopenta[c]pyrrol-2(1H)-yl]phenyl}-5-ethyl-4-hydroxy-2-oxo-1,2-dihydropyridine-3-carboxylic acid]	3.5 to 12.5 (≈ 7.39 to 26.4 µM)	12.5 to 150 (≈ 26.4 to 317 µM)	12.5 to 150 (≈ 26.4 to 317 µM)	12.5 to 150 (≈ 26.4 to 317 µM)	–
CCc1c(-c2ccc(N3C[C@H]4C[C@@H](N(Cc5ccccc5)Cc5ccccc5)C[C@H]4C3)cc2)[nH]c(=O)c(C(=O)O)c1O [Cpd 251, 6-{4-[(3aR,5r,6aS)-5-(dibenzylamino)hexahydrocyclopenta[c]pyrrol-2(1H)-yl]phenyl}-5-ethyl-4-hydroxy-2-oxo-1,2-dihydropyridine-3-carboxylic acid]	12.5 to 150 (≈ 22.2 to 266 µM)	12.5 to 150 (≈ 22.2 to 266 µM)	12.5 to 150 (≈ 22.2 to 266 µM)	12.5 to 150 (≈ 22.2 to 266 µM)	–
CCc1c(-c2ccc(N3CC4CCCN(C(=O)OC(C)(C)C)C4C3)cc2)[nH]c(=O)c(C(=O)O)c1O (stereo not drawn) [Cpd 253, 6-{4-[1-(tert-butoxycarbonyl)octahydro-6H-pyrrolo[3,4-b]pyridin-6-yl]phenyl}-5-ethyl-4-hydroxy-2-oxo-1,2-dihydropyridine-3-carboxylic acid]	< 1	12.5 to 150 (≈ 25.8 to 310 µM)	3.5 to 12.5 (≈ 7.24 to 25.8 µM)	12.5 to 150 (≈ 25.8 to 310 µM)	–
CCc1c(-c2ccc(N3CCC(CN(C)Cc4ccccc4)C3)cc2)[nH]c(=O)c(C(=O)O)c1O (stereo not drawn) [Cpd 255, 6-[4-(3-{[benzyl(methyl)amino]methyl}pyrrolidin-1-yl)phenyl]-5-ethyl-4-hydroxy-2-oxo-1,2-dihydropyridine-3-carboxylic acid]	3.5 to 12.5 (≈ 7.58 to 27.1 µM)	12.5 to 150 (≈ 27.1 to 325 µM)	3.5 to 12.5 (≈ 7.58 to 27.1 µM)	12.5 to 150 (≈ 27.1 to 325 µM)	–

From patent publication US9650395B2, “Antibacterial compounds and methods for use” (PTC Therapeutics, Inc., priority 2011, dated 2017)
